Some results are limits rather than exact numbers.

As usually defined, the IC50 is the concentration that inhibits the measured activity by half.

A short description of series [1]: Selectivity index, ratio of IC50 for rhesus monkey LLC-MK2 cells to IC50 for trypomastigotes of Trypanosoma cruzi. Type of series: toxicity, cell-based. The settings on record: read-out: Selectivity Index.
In the next series the test system is LLC-MK2. In words: Cytotoxicity against rhesus monkey LLC-MK2 cells after 48 hrs by MTT assay. Type of series: cell-based, Macaca mulatta. For orientation: Formazan colour is commonly taken as a measure of viable cells.
Series [2] concerns Trypanosoma cruzi. Nature of the series: Antitrypanosomal activity against trypomastigotes of Trypanosoma cruzi infected in rhesus monkey LLC-MK2 cells after 48 hrs by MTT assay. The class given is functional, organism-based. The settings on record: LLC-MK2, 48 h.
A further series has as its system Leishmania braziliensis. Nature of the series: Antileishmanial activity against promastigotes of Leishmania braziliensis MHO/BR/75/M2903 after 18 hrs by MTT assay. Type of series: functional, organism-based. Particulars: MHO/BR/75/M2903, 18 h.
The subject of series [3] is Leishmania chagasi. In words: Antileishmanial activity against promastigotes of Leishmania chagasi MHOM/BR/1972/LD after 18 hrs by MTT assay. The class given is functional, organism-based.
Series [4] is described as follows: Cytotoxicity in BALB/c mouse erythrocytes assessed as hemolysis at 50 uM after 3 hrs. The class given is cell-based. The settings on record: erythrocyte.
The test system of the next series is Leishmania major. Nature of the series: Antileishmanial activity against promastigotes of Leishmania major MHOM/1L/80/Fredlin after 18 hrs by MTT assay. The class given is functional, organism-based.
Series [5] relates to Leishmania chagasi. Nature of the series: Antileishmanial activity against amastigotes of Leishmania chagasi MHOM/BR/1972/LD after 24 hrs by MTT assay. Type of series: functional, organism-based.
A short description of series [6]: Selectivity index, ratio of IC50 for rhesus monkey LLC-MK2 cells to IC50 for amastigotes of Leishmania chagasi MHOM/BR/1972/LD. The class given is toxicity, cell-based. Particulars: read-out: Selectivity Index.
The next series deals with Leishmania amazonensis. Nature of the series: Antileishmanial activity against promastigotes of Leishmania amazonensis WHO/BR/00/LT0016 after 18 hrs by MTT assay. Particulars: WHO/BR/00/LT0016, 18 h. Type of series: functional, organism-based.
Series [7] has as its system Trypanosoma cruzi. Nature of the series: Antitrypanosomal activity against epimastigotes of Trypanosoma cruzi. The class given is functional, organism-based.
[8] abbreviates: Leishmania chagasi, MHOM/BR/1972/LD, 24 h.

Turning to `CCOC(=O)C1=C(COCCN)NC(C)=C(C(=O)OC)C1c1ccccc1Cl` (centres undefined) [AMLODIPINE], the selectivity ratio came to 8.77 in series [1] and 13.2 in series [6]. In addition, the half-inhibitory concentration (IC50) was determined as 70.8 µM in the series with LLC-MK2 (Macaca mulatta, LLC-MK2, 48 h); 8.07 µM in the series with Trypanosoma cruzi [2]; 3.13 µM in the series on Leishmania braziliensis; 2.61 µM in the series on Leishmania chagasi [3]; 3.35 µM with Leishmania major; 5.35 µM in the series on Leishmania chagasi [5] (setting [8]). The same molecule returned a 50% inhibitory concentration (IC50) with Leishmania amazonensis of 2.93 µM. Also, the Activity entry in series [4] was “Non-toxic”.
For the molecule `CC1=C(C(=O)OC(C)C)C(c2cccc([N+](=O)[O-])c2)C(C(=O)OC2CN(C(c3ccccc3)c3ccccc3)C2)=C(N)N1` (centres undefined) [AZELNIDIPINE], the selectivity ratio in series [1] turned out to be 11.5. The IC50 came out at 33.5 µM in the series on LLC-MK2 (Macaca mulatta, LLC-MK2, 48 h); 2.9 µM in the series with Trypanosoma cruzi [2]; 13.7 µM in the series with Leishmania braziliensis; 33.4 µM in the series with Leishmania chagasi [3]; 17.1 µM in the series with Leishmania major; 20.5 µM with Leishmania amazonensis. Further, the Activity entry in series [4] was “Non-toxic”.
As for `O=C(Cn1ccnc1[N+](=O)[O-])NCc1ccccc1` [BENZNIDAZOLE], the 50% inhibitory concentration (IC50) with LLC-MK2 (Macaca mulatta, LLC-MK2, 48 h) is over 1370 µM; with Trypanosoma cruzi [2], 172 µM. Moreover, the Activity result in [4] is “Non-toxic”.
`COCCOC(=O)C1=C(C)NC(C)=C(C(=O)OC/C=C/c2ccccc2)C1c1cccc([N+](=O)[O-])c1` (centres undefined) [CILNIDIPINE]: the selectivity ratio was 39.4 in [1] and 7.79 in series [6]. Further, the IC50 in the series on LLC-MK2 (Macaca mulatta, LLC-MK2, 48 h) came to 222 µM; with Trypanosoma cruzi [2] it was 5.62 µM; in the series on Leishmania braziliensis, 15.3 µM; in the series on Leishmania chagasi [3], 33 µM; with Leishmania major, 21.4 µM; with Leishmania chagasi [5] (setting [8]), 28.4 µM. Moreover, in the series on Leishmania amazonensis, the IC50 worked out at 111 µM. In addition, the Activity result in series [4] is on record as “Non-toxic”.
As for `COC(=O)C1=C(C)NC(C)=C(C(=O)OC(C)C)C1c1cccc2nonc12` (centres undefined) [ISRADIPINE], the Activity result in series [4] is “Non-toxic”. Also, the IC50 in the series with Trypanosoma cruzi [7] was found to be 20.8 µM.
For the molecule `CCOC(=O)C1=C(C)NC(C)=C(C(=O)OCC)C1c1ccccc1/C=C/C(=O)OC(C)(C)C` [LACIDIPINE], the Activity result in series [4] is recorded as “Non-toxic”. For the same molecule, inhibition in the series with Trypanosoma cruzi [7] was half-maximal at 33.5 µM (IC50).
As to `COC(=O)C1=C(C)NC(C)=C(C(=O)OC(C)(C)CN(C)CCC(c2ccccc2)c2ccccc2)C1c1cccc([N+](=O)[O-])c1` (centres undefined) [LERCANIDIPINE], the selectivity ratio amounted to 51.6 in [1] and 42 in [6]. For the same molecule, the IC50 was determined as 435 µM in the series with LLC-MK2 (Macaca mulatta, LLC-MK2, 48 h); 8.43 µM in the series with Trypanosoma cruzi [2]; 10.3 µM in the series on Leishmania braziliensis; 19.2 µM in the series with Leishmania chagasi [3]; 11.6 µM in the series with Leishmania major; 10.4 µM in the series with Leishmania chagasi [5] (setting [8]). This molecule also displayed a 50% inhibitory concentration (IC50) in the series with Leishmania amazonensis of 16.9 µM. Besides, in [4], the Activity entry is listed as “Non-toxic”.
As for `COC(=O)C1=C(C)NC(C)=C(C(=O)OCCN(C)Cc2ccccc2)C1c1cccc([N+](=O)[O-])c1` (centres undefined) [NICARDIPINE], the selectivity ratio in [1] stood at 6.76; in series [6] it was 3.25. Also, the IC50 in the series on LLC-MK2 (Macaca mulatta, LLC-MK2, 48 h) is 71.6 µM; with Trypanosoma cruzi [2] it was 10.6 µM; with Leishmania braziliensis it was 19.1 µM; in the series on Leishmania chagasi [3], 35.7 µM; with Leishmania major, 21.8 µM; with Leishmania chagasi [5] (setting [8]), 22 µM. In the series on Leishmania amazonensis, the IC50 is 26.5 µM. Also, in [4], the Activity result was “Non-toxic”.
With `COC(=O)C1=C(C)NC(C)=C(C(=O)OC)C1c1ccccc1[N+](=O)[O-]` [NIFEDIPINE], the selectivity ratio in series [1] amounted to 5.78; in series [6], 4.21. Also, the IC50 came to 589 µM in the series on LLC-MK2 (Macaca mulatta, LLC-MK2, 48 h); 102 µM in the series on Trypanosoma cruzi [2]; 95.7 µM in the series on Leishmania braziliensis; 146 µM with Leishmania chagasi [3]; 181 µM in the series on Leishmania major; 176 µM in the series on Leishmania chagasi [5] (setting [8]). In the series with Leishmania amazonensis, half-maximal inhibition (IC50) was put at 118 µM. Moreover, the Activity entry in series [4] is listed as “Non-toxic”.
As for `COCCOC(=O)C1=C(C)NC(C)=C(C(=O)OC(C)C)C1c1cccc([N+](=O)[O-])c1` (centres undefined) [NIMODIPINE], the selectivity ratio in series [1] came out at 2.98; in series [6], 4.45. In addition, the half-inhibitory concentration (IC50) was found to be 96.2 µM in the series on LLC-MK2 (Macaca mulatta, LLC-MK2, 48 h); 32.3 µM in the series on Trypanosoma cruzi [2]; 42.8 µM with Leishmania braziliensis; 82.7 µM in the series on Leishmania chagasi [3]; 31 µM in the series with Leishmania major; 21.6 µM with Leishmania chagasi [5] (setting [8]). Further, in the series on Leishmania amazonensis, the IC50 amounted to 128 µM. Further, the Activity result in series [4] was “Non-toxic”.
As for `CCOC(=O)C1=C(C)NC(C)=C(C(=O)OC)C1c1cccc([N+](=O)[O-])c1` (centres undefined) [NITRENDIPINE], the selectivity ratio in series [1] stood at 5.12; in series [6] it was 3.14. For the same molecule, the half-inhibitory concentration (IC50) in the series with LLC-MK2 (Macaca mulatta, LLC-MK2, 48 h) is 138 µM; with Trypanosoma cruzi [2], 26.9 µM; in the series on Leishmania braziliensis, 39 µM; in the series with Leishmania chagasi [3], 64.1 µM; in the series with Leishmania major, 33.3 µM; in the series with Leishmania chagasi [5] (setting [8]), 43.8 µM. Besides, 38.3 µM corresponded to half-maximal inhibition in the series on Leishmania amazonensis (IC50). For the same molecule, in [4], the Activity result is listed as “Non-toxic”.
Turning to `N=C(N)c1ccc(OCCCCCOc2ccc(C(=N)N)cc2)cc1` [PENTAMIDINE], the IC50 in the series with LLC-MK2 (Macaca mulatta, LLC-MK2, 48 h) stood at 25.6 µM; in the series on Leishmania braziliensis, 0.15 µM; in the series on Leishmania chagasi [3] it was 1.11 µM; with Leishmania major, 0.47 µM; in the series on Leishmania amazonensis it was 0.49 µM. Moreover, the Activity result in [4] is recorded as “Non-toxic”.
In the case of MEGLUMINE ANTIMONATE, the IC50 was over 1370 µM in the series with LLC-MK2 (llc-mk2) and 82.3 µM with Leishmania chagasi [5]. For the same molecule, in [4], the Activity entry was “Non-toxic”.

For the origin of these results see ChEMBL document CHEMBL1275339, “Anti-leishmanial and anti-trypanosomal activities of 1,4-dihydropyridines: In vitro evaluation and structure-activity relationship study” (Bioorg Med Chem, 2010).
